From patent publication US20230265094A1, “RIPK1 INHIBITORS AND METHODS OF USE” (Merck Sharp & Dohme LLC, priority 2020, published 2023)
Counter-ions that a name gives are not always drawn.

target: T1, RIPK1 (Homo sapiens, UniProt Q13546); assay: RIPK1-ADP-Glo enzymatic assay; format: biochemical; conditions: ADP-Glo luminescent ADP detection; 25 nM GST-RIPK1 kinase domain (residues 1-327), 300 μM ATP, dephosphorylated-MBP substrate; 30 min pre-incubation, 150 min reaction
T1 construct: recombinant GST-RIPK1 kinase domain (residues 1-327) enzyme produced from baculovirus-transfected Sf21 cells; host or cells: baculovirus-transfected Sf21 insect cells
T1 sequence (Q13546 1-327): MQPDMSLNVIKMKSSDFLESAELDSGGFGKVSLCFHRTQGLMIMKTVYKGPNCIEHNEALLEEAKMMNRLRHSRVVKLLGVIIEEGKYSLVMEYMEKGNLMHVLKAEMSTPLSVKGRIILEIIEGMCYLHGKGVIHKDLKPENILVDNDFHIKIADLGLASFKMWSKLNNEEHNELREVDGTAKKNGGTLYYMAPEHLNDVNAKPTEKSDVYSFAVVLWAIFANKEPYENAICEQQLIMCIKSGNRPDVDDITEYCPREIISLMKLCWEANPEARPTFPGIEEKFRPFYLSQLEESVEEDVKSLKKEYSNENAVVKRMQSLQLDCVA
Protocol: RIPK1-ADP-Glo Enzymatic Assay
The enzymatic activity of RIPK1 is measured using an assay derived from ADP-Glo kit (Promega™), which provides a luminescent-based ADP detection system. Specifically, the ADP generated by RIPK1 kinase is proportionally detected as luminescent signals in a homogenous fashion. In this context, the assessment of the inhibitory effect of small molecules (EC50) is measured by the effectiveness of the compounds to inhibit the ATP to ADP conversion by RIPK1.
In this assay, the potency (EC50) of each compound was determined from a ten-point (1:3 serial dilution; top compound concentration of 100000 nM) titration curve using the following outlined procedure. To each well of a white ProxiPlus 384 well-plate, 30 nL of compound (1% DMSO in final assay volume of 3 μL) was dispensed, followed by the addition of 2 μL of 1×assay buffer (25 mM Hepes 7.3, 20 mM MgCl2, 50 mM NaCl, 1 mM DTT, 0.005% Tween20, and 0.02% BSA) containing 37.5 nM of GST-RIPK1 (recombinant GST-RIPK1 kinase domain (residues 1-327) enzyme produced from baculovirus-transfected Sf21 cells: MW=62 kDa). Plates were placed in an ambient temperature humidified chamber for a 30 minutes pre-incubation with compound. Subsequently, each reaction was initiated by the addition of 1 μL 1×assay buffer containing 900 μM ATP and […] dephosphorylated-MBP substrate. The final reaction in each well of 3 μL consists of 25 nM of GST-RIPK1, 300 μM ATP, and 3 μM dephosphorylated-MBP. Kinase reactions were allowed to proceed for 150 minutes prior to adding ADP-Glo reagents per Promega's outlined kit protocol. Dose-response curves were generated by plotting percent effect (% product conversion; Y-axis) vs. Log10 compound concentrations (X-axis). EC50 values were calculated using a non-linear regression, four-parameters sigmoidal dose-response model.

First: CC1(Oc2ccnc(C#N)c2)CN(C(=O)N2N=CC[C@H]2c2cc(F)cc(F)c2)C1 [Example 2.35, (S)-4-((1-(5-(3,5-difluorophenyl)-4,5-dihydro-1H-pyrazole-1-carbonyl)-3-methylazetidin-3-yl)oxy)picolinonitrile]
Second: N#Cc1cc(CC2CN(C(=O)N3N=CC[C@H]3c3cc(F)cc(F)c3)C2)ccn1 [Example 2.46, (S)-4-((1-(5-(3,5-difluorophenyl)-4,5-dihydro-1H-pyrazole-1-carbonyl)azetidin-3-yl)methyl)picolinonitrile]
The EC50 of the first is 1.9-fold lower: 0.0242 µM for the first, 0.0463 µM for the second. The first is the more potent here.

O=C(N1CC(C(F)F)C1)N1N=CC[C@H]1c1cc(F)cc(F)c1 [Example 1.37, (S)-(3-(difluoromethyl)azetidin-1-yl)(5-(3,5-difluorophenyl)-4,5-dihydro-1H-pyrazol-1-yl)methanone] and O=C(N1CC(Cl)C1)N1N=CC[C@H]1c1cc(F)cc(F)c1 [Example 1.33, (S)-(3-chloroazetidin-1-yl)(5-(3,5-difluorophenyl)-4,5-dihydro-1H-pyrazol-1-yl)methanone] are within 1.5-fold of each other in EC50: 0.0226 µM for the first, 0.0183 µM for the second.

Compared with CN(c1ccccc1)C1CN(C(=O)N2N=CC[C@H]2c2cc(F)cc(F)c2)C1 [Example 2.17, (S)-(5-(3,5-difluorophenyl)-4,5-dihydro-1H-pyrazol-1-yl)(3-(methyl(phenyl)amino)azetidin-1-yl)methanone, TFA salt], O=C(N1CC(O)(c2ccccc2)C1)N1N=CC[C@H]1c1cc(F)cc(F)c1 [Example 1.44, (S)-(5-(3,5-difluorophenyl)-4,5-dihydro-1H-pyrazol-1-yl)(3-hydroxy-3-phenylazetidin-1-yl)methanone] is 110-fold higher in EC50: 0.0071 µM for the first, 0.811 µM for the second.

Going from C[C@H]1[C@H](Oc2ccccc2)CN1C(=O)N1N=CC[C@H]1c1cc(F)cc(F)c1 (single isomer, unassigned) [Example 1.9, ((S)-5-(3,5-difluorophenyl)-4,5-dihydro-1H-pyrazol-1-yl)((2S,3R or 2R,3S)-2-methyl-3-phenoxyazetidin-1-yl)methanone, TFA salt] to O=C(N1CC(Oc2cccnc2)C1)N1N=CC[C@H]1c1cc(F)cc(F)c1 [Example 1.7, (S)-(5-(3,5-difluorophenyl)-4,5-dihydro-1H-pyrazol-1-yl)(3-(pyridin-3-yloxy)azetidin-1-yl)methanone, TFA salt], the EC50 falls from 0.104 µM to 0.0128 µM (8.1-fold). The second is the more potent here.

O=C(N1CC(Cc2ccccc2)C1)N1N=CC[C@H]1c1ccc(Cl)cc1 [Example 2.10, (S)-(3-benzylazetidin-1-yl)(5-(4-chlorophenyl)-4,5-dihydro-1H-pyrazol-1-yl)methanone] and O=C(N1CC(S(=O)(=O)c2ccc(Br)cc2)C1)N1N=CC[C@H]1c1cc(F)cc(F)c1 [Example 1.57, (S)-(3-((4-bromophenyl)sulfonyl)azetidin-1-yl)(5-(3,5-difluorophenyl)-4,5-dihydro-1H-pyrazol-1-yl)methanone] are within 1.5-fold of each other in EC50: 0.0114 µM for the first, 0.0124 µM for the second.

First: O=C(N1CC(O)(C2CC2)C1)N1N=CC[C@H]1c1cc(F)cc(F)c1 [Example 1.34, (S)-(3-cyclopropyl-3-hydroxyazetidin-1-yl)(5-(3,5-difluorophenyl)-4,5-dihydro-1H-pyrazol-1-yl)methanone]
Second: CC1(C#N)CN(C(=O)N2N=CC[C@H]2c2cc(F)cc(F)c2)C1 [Example 1.36, (S)-1-(5-(3,5-difluorophenyl)-4,5-dihydro-1H-pyrazole-1-carbonyl)-3-methylazetidine-3-carbonitrile]
The EC50 of the first is 39-fold higher: 2.46 µM for the first, 0.0623 µM for the second.

First: C[C@H]1[C@@H](Oc2ccc(F)cc2)CN1C(=O)N1N=CC[C@H]1c1cncc(C#N)c1 [Example 2.25, 5-((S)-1-((2S,3S)-3-(4-fluorophenoxy)-2-methylazetidine-1-carbonyl)-4,5-dihydro-1H-pyrazol-5-yl)nicotinonitrile]
Second: Cc1noc(C2CN(C(=O)N3N=CC[C@H]3c3cc(F)cc(F)c3)C2)n1 [Example 1.55, (S)-(5-(3,5-difluorophenyl)-4,5-dihydro-1H-pyrazol-1-yl)(3-(3-methyl-1,2,4-oxadiazol-5-yl)azetidin-1-yl)methanone]
The EC50 of the first is 14-fold lower: 0.0128 µM for the first, 0.175 µM for the second.
